Experimental data published in PubChem BioAssay AID504702 (Southern Research Specialized Biocontainment Screening …, 2011).
Active and inactive are the calls of the source. The rule behind the calls is not given here.

Columns and labels:
[1] = M. tuberculosis growth inhibition with meropenem, dose response, H37Rv, set 2 (AID 504702);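 note: growth read by Alamar Blue after 7 days plus overnight incubation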; conditions: M. tuberculosis H37Rv with meropenem, growth inhibition
[2] = test system: M. tuberculosis H37Rv with meropenem, growth inhibition; assay: as above; conditions: for IC90: measured here: IC90 growth with meropenem

For `Cc1cc(C)c(OCC(=O)Nc2nc3ccccc3[nH]2)c(C)c1`, the growth inhibition ([1]; at 18.8 µM (top of the series)) was 5.17% (inactive), the IC50 [2] was 5.55 µM and the IC90 [2] was > 25 µM.
For `Cc1ccccc1OCC(=O)Nc1ccccc1-c1ccccc1`, the growth inhibition ([1]; at 18.8 µM (top of the series)) was 23.6% (inactive), the IC50 [2] was 14.6 µM and the IC90 [2] was > 25 µM.
For `O=C(Cc1ccccc1Cl)Nc1nc2ccccc2[nH]1`, the growth inhibition ([1]; at 18.8 µM (top of the series)) was -1.22% (inactive), the IC50 [2] was 18.9 µM and the IC90 [2] was > 25 µM.
In the case of `S=C(Nc1ccccc1)Nc1ccc(Cl)cn1`, the growth inhibition ([1]; at 18.8 µM (top of the series)) is reported as 1.73% (inactive), the IC50 [2] is reported as 6.64 µM and the IC90 [2] is reported as > 25 µM.
In the case of `COc1cccc(-c2ccc(-c3noc(-c4ccccc4F)n3)c(OC)n2)c1`, the growth inhibition ([1]; at 18.8 µM (top of the series)) is reported as 5.58% (inactive) and the IC90 [2] is reported as > 25 µM.
With `Cc1cc2cc(Cl)ccc2n1-c1ccccc1` the growth inhibition ([1]; at 25 µM (top of the series)) was 16.5% (inactive).
In the case of `Cc1cc(C)c(OCC(=O)Nc2nc3ccccc3s2)c(Cl)c1`, the growth inhibition ([1]; at 25 µM (top of the series)) is reported as -6.55% (inactive).
For `CCOc1ccc2nc(NC(=O)C(C)Oc3ccccc3F)sc2c1` (configuration not stated), the growth inhibition ([1]; at 25 µM (top of the series)) was 2.03% (inactive).
With `COc1ccc2nc(NC(=O)COc3ccccc3)sc2c1` the growth inhibition ([1]; at 25 µM (top of the series)) was -1.31% (inactive).
With `COC(=O)c1c(C)[nH]c2ccc(F)cc12` the growth inhibition ([1]; at 25 µM (top of the series)) was -3.53% (inactive).
For `CC(Oc1ccccc1)C(=O)Nc1nc2ccc(S(C)(=O)=O)cc2s1` (configuration not stated), the growth inhibition ([1]; at 25 µM (top of the series)) was -1.72% (inactive).
In the case of `N/C(=N\c1nc2ccccc2o1)NC(=O)c1ccccc1`, the growth inhibition ([1]; at 25 µM (top of the series)) is reported as 2.3% (inactive).
In the case of `CC(Oc1ccc(Cl)cc1)C(=O)Nc1nc2ccccc2s1` (configuration not stated), the growth inhibition ([1]; at 25 µM (top of the series)) is reported as -2.09% (inactive).
With `CC(=O)c1c(C)n(-c2cccc(Cl)c2)c2ccc(O)cc12` the growth inhibition ([1]; at 25 µM (top of the series)) was -2.38% (inactive).
For `CCC(=O)N/C(N)=N/c1nc2ccccc2o1`, the growth inhibition ([1]; at 25 µM (top of the series)) was -1.89% (inactive).
For `Cc1ccccc1OCC(=O)Nc1ncccn1`, the growth inhibition ([1]; at 25 µM (top of the series)) was 3.04% (inactive).
In the case of `COC(=O)c1c(C)[nH]c2ccc(Cl)cc12`, the growth inhibition ([1]; at 25 µM (top of the series)) is reported as -8.83% (inactive).
With `CCOc1ccc2[nH]c(C)cc2c1` the growth inhibition ([1]; at 25 µM (top of the series)) was -0.67% (inactive).
With `Cc1cc2cc(F)ccc2n1-c1ccccc1` the growth inhibition ([1]; at 25 µM (top of the series)) was 5.53% (inactive).
In the case of `Cc1ccc2oc(/N=C(\N)NC(=O)c3ccccc3)nc2c1`, the growth inhibition ([1]; at 25 µM (top of the series)) is reported as 5.09% (inactive).
With `O=C(COc1cccc2ccccc12)Nc1nc2ccccc2s1` the growth inhibition ([1]; at 25 µM (top of the series)) was -6.75% (inactive).
For `Cc1cc2cc(Cl)ccc2[nH]1`, the growth inhibition ([1]; at 25 µM (top of the series)) was 0.31% (inactive).
In the case of `O=C(CC12CC3CC(CC(C3)C1)C2)NCc1ccc(F)cc1`, the growth inhibition ([1]; at 18.8 µM (top of the series)) is reported as -0.16% (inactive) and the growth inhibition ([1]; at 25 µM (top of the series)) is reported as -0.41% (inactive).
For `O=C(COc1ccccc1Cl)Nc1nc2ccccc2s1`, the growth inhibition ([1]; at 25 µM (top of the series)) was -4.37% (inactive).
With `N/C(=N\c1nc2ccccc2o1)NC(=O)C1CC1` the growth inhibition ([1]; at 25 µM (top of the series)) was 9.34% (inactive).
In the case of `COc1ccccc1C(=O)N/C(N)=N/c1nc2ccccc2o1`, the growth inhibition ([1]; at 25 µM (top of the series)) is reported as 0.18% (inactive).
In the case of `c1ccc(-c2cc(N3CCOCC3)nc3ccccc23)cc1`, the growth inhibition ([1]; at 25 µM (top of the series)) is reported as 6.06% (inactive), the IC50 [2] is reported as 10 µM and the IC90 [2] is reported as > 18.8 µM.
In the case of `COC(=O)c1ccc2nc(NC(=O)COc3ccccc3)sc2c1`, the growth inhibition ([1]; at 25 µM (top of the series)) is reported as 15.1% (inactive).
With `Cc1ccc(OCC(=O)Nc2cccc3ncccc23)c(C)c1` the growth inhibition ([1]; at 25 µM (top of the series)) was 1.76% (inactive).
In the case of `O=C(Nc1nc2ccccc2[nH]1)c1cc2cc(Br)ccc2o1`, the growth inhibition ([1]; at 25 µM (top of the series)) is reported as -2.41% (inactive).
